# According to patent US20200268702A1, “METHODS OF TREATING […]” (Amarin Pharmaceuticals Ireland Limited, priority 2013, published 2020):
# Legend:
# [1] = test system: subjects with Age-Associated Memory Impairment; assay: Safety and tolerability (adverse events), 6-week AAMI study; type: in vivo, human
# Experimental: Ninety-four subjects were randomized into one of six groups: 1 g E-EPA daily (n=23), 2 g E-EPA daily (n=24), 4 g E-EPA daily (n=24), 1 g placebo daily (n=7), 2 g placebo daily (n=8), and 4 g placebo daily (n=8).
# All randomized subjects that received at least 1 dose of study medication were included in the Safety Population.
# Safety evaluations were based on the safety population. Safety and tolerability were assessed in terms of AEs, vital signs, 12-lead ECG, clinical laboratory data, medical history, and study drug compliance. Safety and tolerability data were presented by treatment group.
# [2] = Essential fatty acid parameters in plasma and RBC, 6-week AAMI study; type: in vivo, human
# Experimental: Blood samples (10 mL) were collected at Visit 1 (screening) and at Visits 4, 5 and 6. Analysis was performed by MSR Lipid Analysis, Scottish Crop Research Institute, Dundee, UK. The screening sample acted as baseline for the EFA measurements. Lipid was extracted from plasma, serum and RBC suspensions and converted into fatty acid methyl esters which were analyzed by gas chromatography to give fatty acid profiles as micrograms fatty acid per gram of sample (μgFA/g) and normalized area percent. RBC and plasma EFA data were collected at baseline, Day 14, 28 and 42 and summarized by visit for each treatment group. Change from baseline and percent change from baseline were also summarized. ANCOVA comparison of ethyl-EPA dose groups and ethyl-EPA versus placebo was performed.
smiles,measurement,setting,value
"CC/C=C\C/C=C\C/C=C\C/C=C\C/C=C\CCCC(=O)OCC [AMR101, ethyl eicosapentaenoate]",nausea Probably Related to the study drug,[1]; 1 g,One
same,"nausea Possibly Related to the study drug, subjects",[1]; 1 g cohort,two
same,"nausea Possibly Related to the study drug, subjects",[1]; 2 g cohort,one
same,SAE reported,[1]; 2 g treatment group,One
same,subjects discontinued due to TEAEs,[1]; 2 g treatment group,2 subjects
same,"Serious Adverse Event (worsening epigastric chest pain), relation to study drug","[1]; 2 g, one subject",unrelated to the study drug
same,diarrhea Probably Related to the study drug,[1]; 4 g,Another subject
same,"nausea Possibly Related to the study drug, subjects",[1]; 4 g cohort,two
same,TEAEs Definitely Related to the study drug,[1]; all groups,No TEAEs were Definitely Related
same,deaths during the study,[1]; all groups,no deaths
same,treatment emergent AEs (TEAEs) reported,"[1]; ethyl-EPA treatment groups (1 g, 2 g, 4 g), placebo groups 34 events",105 events
same,"AA, Plasma, Mean (SD) change from Baseline","[2]; 1 g daily, Day 14",−9.7 (22.20) μg/g
same,"AA, RBC, Mean (SD) change from Baseline","[2]; 1 g daily, Day 14",−8.1 (21.95) μg/g
same,"DGLA, Plasma, mean (SD) change from Baseline","[2]; 1 g daily, Day 14",−10.4 (10.90) μg/g
same,"DGLA, RBC, mean (SD) change from Baseline","[2]; 1 g daily, Day 14",−2.7 (3.82) μg/g
same,"DHA, Plasma, Mean (SD) change from Baseline","[2]; 1 g daily, Day 14",−6.4 (13.30) μg/g
same,"DHA, RBC, Mean (SD) change from Baseline","[2]; 1 g daily, Day 14",−4.6 (9.76) μg/g
same,"AA, Plasma, Mean (SD) change from Baseline","[2]; 1 g daily, Day 28",−11.3 (28.13) μg/g
same,"AA, RBC, Mean (SD) change from Baseline","[2]; 1 g daily, Day 28",−17.0 (20.69) μg/g
same,"DGLA, Plasma, mean (SD) change from Baseline","[2]; 1 g daily, Day 28",−10.6 (10.23) μg/g
same,"DGLA, RBC, mean (SD) change from Baseline","[2]; 1 g daily, Day 28",−3.8 (3.31) μg/g
same,"DHA, Plasma, Mean (SD) change from Baseline","[2]; 1 g daily, Day 28",−6.6 (15.53) μg/g
same,"DHA, RBC, Mean (SD) change from Baseline","[2]; 1 g daily, Day 28",−6.4 (11.57) μg/g
same,"AA, Plasma, Mean (SD) change from Baseline","[2]; 1 g daily, Day 42",−8.7 (31.35) μg/g
same,"AA, RBC, Mean (SD) change from Baseline","[2]; 1 g daily, Day 42",−14.2 (27.69) μg/g
same,"DGLA, Plasma, mean (SD) change from Baseline","[2]; 1 g daily, Day 42",−9.4 (9.41) μg/g
same,"DGLA, RBC, mean (SD) change from Baseline","[2]; 1 g daily, Day 42",−3.5 (4.51) μg/g
same,"DHA, Plasma, Mean (SD) change from Baseline","[2]; 1 g daily, Day 42",−5.4 (18.17) μg/g
same,"DHA, RBC, Mean (SD) change from Baseline","[2]; 1 g daily, Day 42",−7.0 (12.20) μg/g
same,"EPA/AA, Plasma, mean (SD) change from Baseline","[2]; 1 g daily, Day 42",0.3
same,"AA, Plasma, LS Mean, 1 g versus 4 g",[2]; 1 g versus 4 g,4.2 µg/g
same,"AA, RBC, LS Mean, 1 g versus 4 g",[2]; 1 g versus 4 g,8.4 µg/g
same,"DGLA, Plasma, LS mean, 1 g versus 4 g",[2]; 1 g versus 4 g,3.7 µg/g
same,"DGLA, RBC, LS mean, 1 g versus 4 g",[2]; 1 g versus 4 g,1.5 µg/g
same,"DHA, Plasma, LS mean, 1 g versus 4 g",[2]; 1 g versus 4 g,-0.8 µg/g
same,"DHA, RBC, LS mean, 1 g versus 4 g",[2]; 1 g versus 4 g,1.0 µg/g
same,"AA, Plasma, Mean (SD) change from Baseline","[2]; 2 g daily, Day 14",−13.9 (22.13) μg/g
same,"AA, RBC, Mean (SD) change from Baseline","[2]; 2 g daily, Day 14",−3.1 (25.84) μg/g
same,"DGLA, Plasma, mean (SD) change from Baseline","[2]; 2 g daily, Day 14",−14.1 (6.88) μg/g
same,"DGLA, RBC, mean (SD) change from Baseline","[2]; 2 g daily, Day 14",−2.6 (3.54) μg/g
same,"DHA, Plasma, Mean (SD) change from Baseline","[2]; 2 g daily, Day 14",−5.4 (14.29) μg/g
same,"DHA, RBC, Mean (SD) change from Baseline","[2]; 2 g daily, Day 14",−2.0 (9.46) μg/g
same,"AA, Plasma, Mean (SD) change from Baseline","[2]; 2 g daily, Day 28",21.6 (28.32) μg/g
same,"AA, RBC, Mean (SD) change from Baseline","[2]; 2 g daily, Day 28",−14.1 (26.89) μg/g
same,"DGLA, Plasma, mean (SD) change from Baseline","[2]; 2 g daily, Day 28",−16.2 (9.88) μg/g
same,"DGLA, RBC, mean (SD) change from Baseline","[2]; 2 g daily, Day 28",−4.5 (3.58) μg/g
same,"DHA, Plasma, Mean (SD) change from Baseline","[2]; 2 g daily, Day 28",−8.1 (15.82) μg/g
same,"DHA, RBC, Mean (SD) change from Baseline","[2]; 2 g daily, Day 28",−6.2 (9.34) μg/g
same,"AA, Plasma, Mean (SD) change from Baseline","[2]; 2 g daily, Day 42",−27.3 (26.76) μg/g
same,"AA, RBC, Mean (SD) change from Baseline","[2]; 2 g daily, Day 42",−18.8 (25.62) μg/g
same,"DGLA, Plasma, mean (SD) change from Baseline","[2]; 2 g daily, Day 42",−17.3 (9.92) μg/g
same,"DGLA, RBC, mean (SD) change from Baseline","[2]; 2 g daily, Day 42",−5.3 (3.65) μg/g
same,"DHA, Plasma, Mean (SD) change from Baseline","[2]; 2 g daily, Day 42",−6.0 (16.69) μg/g
same,"DHA, RBC, Mean (SD) change from Baseline","[2]; 2 g daily, Day 42",−6.3 (9.42) μg/g
same,"AA, Plasma, LS Mean, 2 g versus 4 g",[2]; 2 g versus 4 g,15.6 µg/g
same,"AA, RBC, LS Mean, 2 g versus 4 g",[2]; 2 g versus 4 g,9.8 µg/g
same,"DGLA, Plasma, LS mean, 2 g versus 4 g",[2]; 2 g versus 4 g,2.5 µg/g
same,"DGLA, RBC, LS mean, 2 g versus 4 g",[2]; 2 g versus 4 g,1.5 µg/g
same,"DHA, Plasma, LS mean, 2 g versus 4 g",[2]; 2 g versus 4 g,1.5 µg/g
same,"DHA, RBC, LS mean, 2 g versus 4 g",[2]; 2 g versus 4 g,1.0 µg/g
same,"AA, Plasma, Mean (SD) change from Baseline","[2]; 4 g daily, Day 14",−27.2 (28.89) μg/g
same,"AA, RBC, Mean (SD) change from Baseline","[2]; 4 g daily, Day 14",−15.7 (26.76) μg/g
same,"DGLA, Plasma, mean (SD) change from Baseline","[2]; 4 g daily, Day 14",−22.9 (9.00) μg/g
same,"DGLA, RBC, mean (SD) change from Baseline","[2]; 4 g daily, Day 14",−5.3 (4.10) μg/g
same,"DHA, Plasma, Mean (SD) change from Baseline","[2]; 4 g daily, Day 14",−10.3 (13.35) μg/g
same,"DHA, RBC, Mean (SD) change from Baseline","[2]; 4 g daily, Day 14",−6.9 (9.13) μg/g
same,"AA, Plasma, Mean (SD) change from Baseline","[2]; 4 g daily, Day 28",−43.7 (32.24) μg/g
same,"AA, RBC, Mean (SD) change from Baseline","[2]; 4 g daily, Day 28",−22.8 (29.56) μg/g
same,"DGLA, Plasma, mean (SD) change from Baseline","[2]; 4 g daily, Day 28",−24.2 (10.73) μg/g
same,"DGLA, RBC, mean (SD) change from Baseline","[2]; 4 g daily, Day 28",−7.1 (4.63) μg/g
same,"DHA, Plasma, Mean (SD) change from Baseline","[2]; 4 g daily, Day 28",−13.5 (14.10) μg/g
same,"DHA, RBC, Mean (SD) change from Baseline","[2]; 4 g daily, Day 28",−8.7 (11.63) μg/g
same,"AA, Plasma, Mean (SD) change from Baseline","[2]; 4 g daily, Day 42",−48.3 (22.20) μg/g
same,"AA, RBC, Mean (SD) change from Baseline","[2]; 4 g daily, Day 42",−34.4 (31.44) μg/g
same,"DGLA, Plasma, mean (SD) change from Baseline","[2]; 4 g daily, Day 42",−22.5 (10.87) μg/g
same,"DGLA, RBC, mean (SD) change from Baseline","[2]; 4 g daily, Day 42",−8.0 (4.98) μg/g
same,"DHA, Plasma, Mean (SD) change from Baseline","[2]; 4 g daily, Day 42",−13.8 (15.31) μg/g
same,"DHA, RBC, Mean (SD) change from Baseline","[2]; 4 g daily, Day 42",−13.8 (13.76) μg/g
same,"EPA, DPAn-3 and EPA/AA ratio values, change from baseline to Day 42","[2]; plasma and RBC, 1, 2 and 4 g treatment groups",increased substantially
